A word on the Kd: it is the concentration at which binding is half-saturated.

The values that follow come from US8642545B2, “Erythropoietin mimetic peptide derivative and its pharmaceutical salts, the preparation and uses thereof” (Jiangsu Hansoh Pharmaceutical Co., Ltd, priority 2007, dated 2014).

Like-named read-outs stand apart in the source and are kept apart here. *1 amine or outer side, *2 acyl side, *3 side chain or, on linkers, in order; H or OH if unused. Bridges are numbered along the chain shown (N, C = ends). Roman numbers before positions name the chains, in order. [ ]: non-standard residue; d: D form. ξ: configuration not given here. X1 = NCCNC(=O)OC(CCC(=O)[*:1])CCC(=O)[*:2]; Nle = CCCC[C@H](N)C(=O)O; ξK = NCCCCC(N)C(=O)O; βAla = NCCC(=O)O

One data set relates to erythropoiesis of mice. In words: Effects of EPO mimetic peptide derivatives on mice, sc injection on three consecutive days, peripheral blood cell and reticulocyte counts. In kind it is in vivo, Kunming mice. Particulars: for Platelet / White Blood Cell: 4.5 mg/kg. How it is done: The biological activity of EPO, or EPO mimetic peptide derivatives and their pharmaceutical salts provided by this invention can be determined by various assays known in this field. Testing of in vivo activity is performed as follows: mice are subcutaneously injected with EPO and EPO mimetic peptide derivatives and their pharmaceutical salts provided by this invention on three consecutive days. The mice are then sacrificed. The whole blood is taken to carry out peripheral blood cells and reticulocyte count. The blood cell count is performed by automatic blood cell counter. […] The dose of EPO protein as a control drug is 240 μ/kg. The drugs are administered three times per week and the administration continues for six weeks. The blood samples are collected to carry out related hematological index analysis. The purpose of the experiments is to evaluate and compare the effects of EPO mimetic peptide derivatives and the EPO protein on erythropoiesis of mice. […] EPO is purchased from […] Pharmaceutical Co., Ltd. Kunming mice are purchased from the Chinese Academy of Sciences Shanghai Experimental Animal Center, weighing 25 30 g, ♀. The number of animals in each group is 10. Mice are injected subcutaneously with EPO mimetic peptide derivatives and EPO protein for three consecutive days. Then the mice are killed, the whole blood is used to carry out peripheral blood cells and reticulocyte counts. Blood cell count is performed using automatic blood cell counter counts.

Data set [1] deals with erythropoiesis of the macaques. In words: Effects of EPO mimetic peptide derivatives on macaques, hematological indexes. The format is in vivo. As to the method:
The biological activity of EPO, or EPO mimetic peptide derivatives and their pharmaceutical salts provided by this invention can be determined by various assays known in this field. Testing of in vivo activity is performed as follows: mice are subcutaneously injected with EPO and EPO mimetic peptide derivatives and their pharmaceutical salts provided by this invention on three consecutive days. The mice are then sacrificed. The whole blood is taken to carry out peripheral blood cells and reticulocyte count. The blood cell count is performed by automatic blood cell counter. Pharmacodynamic studies are carried out by intravenous administration to macaques with a dose of 1.35 mg/kg. The dose of EPO protein as a control drug is 240 μ/kg. The drugs are administered three times per week and the administration continues for six weeks. The blood samples are collected to carry out related hematological index analysis.
The purpose of this experiment is to evaluate the effects of EPO mimetic peptide derivatives on erythropoiesis of the macaques.
EPO mimetic peptide HH-EPO-018 is provided by Jiangsu Hansoh Pharmaceutical co., LTD. EPO is purchased from Shenyang Sansheng Pharmaceutical Co., Ltd. The samples are diluted in a saline containing 0.1% BSA before they are used.
Macaques, weighing 5.5˜8.5 kg, male or female, are purchased from Suzhou Xishan Zhongke Laboratory Animal Center. Macaques are grouped according to the basis of hemoglobin with each group having three macaques. HH-EPO-018 is intravenously injected once at a dose of 1.35 mg/kg; EPO is injected three times per week at a dose of 240 μg/kg. The administration is continued for five weeks. Measure hematological indexes are measured 1˜2 times per week.

The test system of data set [2] is EPO binding sites on red blood cells from the spleen. Conditions: about 400 binding sites, some, cited from earlier work.
The test system of data set [3] is EPO binding sites on immature red blood cells. Particulars: cited from earlier work.
The mark [4] stands for this setting: macaques, 240 μg/kg three times per week, five weeks.
[5] abbreviates: current dosage regimen, three consecutive days.

On to “I: Ac-GGTYSCHFGSLTWVCRPQRG[βAla][ξK]-NH2 / II: Ac-GGTYSCHFGSLTWVCRPQRG[βAla][ξK]-NH2 (disulfide I:6-I:15, II:6-II:15; linker I:22-II:22 via X1) [HH-EPO-007]”, for which, in the data set on erythropoiesis of mice (mouse, d1-3), the Platelet is 2082.1 ± 863.9 ×10^3/μL and the “White Blood Cell” value is on record as 3.6 ± 0.8 ×10^3/μL.
In the case of “I: Ac-GGTYSCHFGALTWVCRPQRG[βAla][ξK]-NH2 / II: Ac-GGTYSCHFGALTWVCRPQRG[βAla][ξK]-NH2 (disulfide I:6-I:15, II:6-II:15; linker I:22-II:22 via X1) [HH-EPO-008]”, in the data set on erythropoiesis of mice (mouse, d1-3), the Platelet is given as 1685.5 ± 351.3 ×10^3/μL and the “White Blood Cell” value was 2.9 ± 0.5 ×10^3/μL.
Taken in the same sequence, the figures for “I: Ac-GGTYSC[Nle]FGPLTWVCRPQRG[βAla][ξK]-NH2 / II: Ac-GGTYSC[Nle]FGPLTWVCRPQRG[βAla][ξK]-NH2 (disulfide I:6-I:15, II:6-II:15; linker I:22-II:22 via X1) [HH-EPO-006]” were 1087.8 ± 118.5 ×10^3/μL and 4.1 ± 1.2 ×10^3/μL.
Consider “I: Ac-GGTYSCHFGPLTWVCRPQRG[βAla][ξK]-NH2 / II: Ac-GGTYSCHFGPLTWVCRPQRG[βAla][ξK]-NH2 (disulfide I:6-I:15, II:6-II:15; linker I:22-II:22 via X1) [HH-EPO-005]”, for which, in the data set on erythropoiesis of mice (mouse, d1-3), the Platelet was 1957.8 ± 349.5 ×10^3/μL and the “White Blood Cell” value is recorded as 4.2 ± 1.2 ×10^3/μL.
As for “EPO: EPO protein purchased from Shenyang Sansheng Pharmaceutical Co., Ltd.; control drug”, in data set [1] (according to the current dosing regimens), the “stimulation on macaque hemoglobin generation, HH-EPO-018 compared with EPO (in words)” value is on record as “similar”. The “blood cell hematocrit (in words)” value in data set [1] (setting [4]) is “increases”. For the same substance, the “peripheral blood hemoglobin content (in words)” value in data set [1] (setting [4]) is reported as “increases”. Besides, in the data set on erythropoiesis of mice (setting [5]), the “influence on mature red blood cells, blood cell hematocrit, hemoglobin content (in words)” value is “no significant influence”. Moreover, in the data set with erythropoiesis of mice (setting [5]), the “mouse peripheral blood reticulocyte count (in words)” value was “significantly promote the increase”. Also, in the data set with erythropoiesis of mice (mouse, 5 μg/kg, d1-3), the “Blood Cell Hematocrit” value is on record as 46.2 ± 2.7%. The “Red Blood Cell Count” value in the data set with erythropoiesis of mice (mouse, 5 μg/kg, d1-3, x ± SD) is reported as 9.0 ± 0.6 ×10^6/μL. For the same substance, in the data set on erythropoiesis of mice (mouse, 5 μg/kg, d1-3, x ± SD), the “Reticulocyte Count” value was 483.9 ± 146.5 ×10^9/L. Besides, the “influence on the peripheral white blood cell count (in words)” value in the data set on erythropoiesis of mice (mouse, in vivo) was “no significant influence”. Besides, the Kd in data set [2] ("high Kd") is 0.1 nM; in data set [2] ("low Kd"), 0.8 nM; in data set [3] (about 300 binding sites of about 800 to 1000 per cell membrane), 0.09 nM; in data set [3] (remaining binding sites, weak binding) it was ~0.57 nM.
